# Data published in US9833455B2, “Preparation and methods of use for ortho-aryl 5-membered heteroaryl-carboxamide containing multi-targeted kinase inhibitors” (Spacefill Enterprises LLC, priority 2011, dated 2017).
# pIC50: −log10 of the molar value. Where two headings read alike, the source gives them in different places.
# Columns and labels:
# BRAF(V600E) [1] = target: T1, BRAF(V600E) (Homo sapiens, UniProt P15056, V600E); assay: LanthaScreen assay, side by side IC50 comparison; assay type: biochemical
# Experimental: (§1) To test both our binding mode hypothesis and to see if these structural differences could be taken exploited to impart selectivity and potency improvements, I-13, in which the lipophilic 2-trifluoromethy substituent on imidazole ring of inhibitor KIN-035, was replaced by the polar 2-methylsulfonyl substitutent. […] To address this issue, real time kinetic experiments were performed.
# BRAF(V600E) [2] = target: T1, BRAF(V600E); assay: Real time kinetic experiments; assay type: biochemical
# Experimental: as §1
# wild type B-Raf = wild type B-Raf (Homo sapiens, UniProt P15056); assay: LanthaScreen assay, IC50; assay type: biochemical
# Experimental: as §1
# panel of kinases = assay: Nanosyn kinase panel profiling (panels of 29, 220, 230, 250 kinases), whole panel; assay type: biochemical; conditions: for activity against any of the kinases tested: panel of 29 selected kinases
# Experimental: “Inhibiting kinase activity” means to decrease the production of an phosphor-peptide by a particular kinase that can be separated by analytical techniques. […] Profiling data in this application were determined using these techniques at Nanosyn Inc. IC50 data were provided by Reaction Biology Inc using a P33 radiolabeled kinase assay.
# These compounds were profiled against a panel of 230 kinases (Nanosyn Inc.).
# A total of 15 new inhibitors were designed, prepared, and evaluated against a panel of 29 selected kinases in order to explore the applicability, SAR trends, and the tunability of this scaffold that could be imposed but this unique geometry, Table 21. Inhibitors I-1 to 1-12 all retained the 2-CF3-5-(4-F-phenyl) imidazole-4-carboxamide scaffold previously described (Deitrich, 2010), but explored different Hinge-Gatekeeper Motifs (HGM).
# To further test the breadth of applicability and ability to achieve selectivity with inhibitors that share this scaffold geometry, I-11 and I-12 were evaluated against a larger panel of 220 high interest kinases, Table-23.
# PRKCE = target: T2, PRKCE (Homo sapiens, UniProt Q02156); conditions: 1 μM, duplicate, without preincubation; cited from earlier work
# T2 construct: literature Ambit Biosciences
# T2 sequence (Q02156 1-737): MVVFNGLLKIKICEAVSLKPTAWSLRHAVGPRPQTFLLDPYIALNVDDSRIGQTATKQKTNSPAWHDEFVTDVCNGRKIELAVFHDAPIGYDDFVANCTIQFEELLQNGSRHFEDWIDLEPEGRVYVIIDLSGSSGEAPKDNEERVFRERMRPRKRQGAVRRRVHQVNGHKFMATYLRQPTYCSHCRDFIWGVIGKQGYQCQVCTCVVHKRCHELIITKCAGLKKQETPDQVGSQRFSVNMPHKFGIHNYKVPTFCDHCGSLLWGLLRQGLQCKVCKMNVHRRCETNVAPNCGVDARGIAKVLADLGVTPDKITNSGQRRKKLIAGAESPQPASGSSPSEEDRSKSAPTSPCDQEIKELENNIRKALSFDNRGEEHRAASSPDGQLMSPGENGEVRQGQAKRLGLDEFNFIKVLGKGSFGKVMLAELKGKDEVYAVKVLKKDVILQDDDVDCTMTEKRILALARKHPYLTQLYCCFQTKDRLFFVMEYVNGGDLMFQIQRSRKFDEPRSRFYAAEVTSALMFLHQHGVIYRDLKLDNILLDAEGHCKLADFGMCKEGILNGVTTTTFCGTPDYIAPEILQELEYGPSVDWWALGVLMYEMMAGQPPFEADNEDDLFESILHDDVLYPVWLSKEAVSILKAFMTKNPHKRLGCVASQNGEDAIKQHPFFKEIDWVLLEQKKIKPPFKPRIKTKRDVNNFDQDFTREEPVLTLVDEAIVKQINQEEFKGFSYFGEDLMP
# CSF1R = target: T3, CSF1R (Homo sapiens, UniProt P07333); conditions: 1 μM, duplicate, without preincubation; cited from earlier work
# T3 construct: literature Ambit Biosciences
# BTK = target: T4, BTK (Homo sapiens, UniProt Q06187); conditions: 1 μM, duplicate, without preincubation; cited from earlier work
# T4 construct: literature Ambit Biosciences
# KIT = KIT (Homo sapiens, UniProt P10721); conditions: 1 μM, duplicate, without preincubation; cited from earlier work
# JAK2 (catalytic) = target: T5, JAK2 (catalytic) (Homo sapiens, UniProt O60674); conditions: 1 μM, duplicate, without preincubation; cited from earlier work
# T5 construct: catalytic; literature Ambit Biosciences
# IKK-beta = target: T6, IKK-beta (Homo sapiens, UniProt O14920); conditions: 1 μM, duplicate, without preincubation; cited from earlier work
# T6 construct: literature Ambit Biosciences
# RAF1 = target: T7, RAF1 (Homo sapiens, UniProt P04049); conditions: 1 μM, duplicate, without preincubation; cited from earlier work
# T7 construct: literature Ambit Biosciences
# BRAF(V600E) [3] = target: T1, BRAF(V600E); design: literature Ambit Biosciences; conditions: 1 μM, duplicate, without preincubation; cited from earlier work
# CDK11 = target: T8, CDK11 (Homo sapiens, UniProt Q9BWU1); conditions: 1 μM, duplicate, without preincubation; cited from earlier work
# T8 construct: literature Ambit Biosciences
# PLK4 = target: T9, PLK4 (Homo sapiens, UniProt O00444); conditions: 1 μM, duplicate, without preincubation; cited from earlier work
# T9 construct: literature Ambit Biosciences
# T9 sequence (O00444 1-970): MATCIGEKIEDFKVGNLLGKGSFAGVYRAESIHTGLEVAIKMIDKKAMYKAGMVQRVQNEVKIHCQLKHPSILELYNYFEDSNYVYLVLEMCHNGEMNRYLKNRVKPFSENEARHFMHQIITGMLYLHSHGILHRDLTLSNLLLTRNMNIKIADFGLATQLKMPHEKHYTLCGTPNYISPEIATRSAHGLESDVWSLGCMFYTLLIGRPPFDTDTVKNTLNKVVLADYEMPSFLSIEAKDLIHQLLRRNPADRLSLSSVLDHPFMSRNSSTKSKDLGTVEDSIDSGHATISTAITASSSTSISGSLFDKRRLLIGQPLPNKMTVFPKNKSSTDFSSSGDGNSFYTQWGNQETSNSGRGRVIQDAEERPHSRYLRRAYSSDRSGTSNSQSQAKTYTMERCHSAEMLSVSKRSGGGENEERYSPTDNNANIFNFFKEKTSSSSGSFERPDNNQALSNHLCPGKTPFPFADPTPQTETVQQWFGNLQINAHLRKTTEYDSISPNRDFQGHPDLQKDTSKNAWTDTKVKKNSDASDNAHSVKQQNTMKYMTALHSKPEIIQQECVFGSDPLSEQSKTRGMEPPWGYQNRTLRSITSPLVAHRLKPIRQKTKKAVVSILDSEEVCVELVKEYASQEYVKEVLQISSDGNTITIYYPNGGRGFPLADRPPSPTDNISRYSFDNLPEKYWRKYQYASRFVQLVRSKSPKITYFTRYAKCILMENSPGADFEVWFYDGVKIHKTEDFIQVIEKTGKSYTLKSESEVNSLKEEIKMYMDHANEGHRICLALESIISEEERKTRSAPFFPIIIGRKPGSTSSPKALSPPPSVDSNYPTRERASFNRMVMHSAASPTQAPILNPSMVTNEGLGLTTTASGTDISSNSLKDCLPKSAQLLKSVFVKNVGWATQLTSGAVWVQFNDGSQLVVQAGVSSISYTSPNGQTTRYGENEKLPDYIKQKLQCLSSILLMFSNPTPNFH
# CDK7 = target: T10, CDK7 (Homo sapiens, UniProt P50613); conditions: 1 μM, duplicate, without preincubation; cited from earlier work
# T10 construct: literature Ambit Biosciences
# DCAMKL1 = target: T11, DCAMKL1 (Homo sapiens, UniProt O15075); conditions: 1 μM, duplicate, without preincubation; cited from earlier work
# T11 construct: literature Ambit Biosciences
# T11 sequence (O15075 1-740): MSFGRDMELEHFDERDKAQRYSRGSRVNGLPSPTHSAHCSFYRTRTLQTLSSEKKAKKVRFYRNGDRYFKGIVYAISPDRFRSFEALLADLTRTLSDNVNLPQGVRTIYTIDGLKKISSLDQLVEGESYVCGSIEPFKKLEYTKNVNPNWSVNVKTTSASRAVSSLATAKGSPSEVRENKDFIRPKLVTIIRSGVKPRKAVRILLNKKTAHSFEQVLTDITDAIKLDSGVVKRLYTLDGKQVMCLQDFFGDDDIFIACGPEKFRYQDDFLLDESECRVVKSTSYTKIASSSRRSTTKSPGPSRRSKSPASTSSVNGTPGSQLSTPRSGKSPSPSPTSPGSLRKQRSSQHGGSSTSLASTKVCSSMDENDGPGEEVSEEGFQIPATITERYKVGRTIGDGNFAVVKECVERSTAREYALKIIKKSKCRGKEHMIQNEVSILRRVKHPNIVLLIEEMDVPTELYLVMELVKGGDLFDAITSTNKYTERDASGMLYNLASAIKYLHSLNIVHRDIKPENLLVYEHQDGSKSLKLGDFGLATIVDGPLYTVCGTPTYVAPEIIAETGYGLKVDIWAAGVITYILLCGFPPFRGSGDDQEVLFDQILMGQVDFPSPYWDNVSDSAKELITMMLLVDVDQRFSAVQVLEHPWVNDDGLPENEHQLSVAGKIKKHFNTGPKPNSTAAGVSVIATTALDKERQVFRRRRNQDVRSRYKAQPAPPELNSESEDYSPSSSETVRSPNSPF
# PDGFRB = target: T12, PDGFRB (Homo sapiens, UniProt P09619); conditions: 1 μM, duplicate, without preincubation; cited from earlier work
# T12 construct: literature Ambit Biosciences
# p38-alpha = target: T13, p38-alpha (Homo sapiens, UniProt Q16539); conditions: 1 μM, duplicate, without preincubation; cited from earlier work
# T13 construct: literature Ambit Biosciences
# BRAF = target: T14, BRAF (Homo sapiens, UniProt P15056); conditions: 1 μM, duplicate, without preincubation; cited from earlier work
# T14 construct: literature Ambit Biosciences
# p38-beta = target: T15, p38-beta (Homo sapiens, UniProt Q15759); conditions: 1 μM, duplicate, without preincubation; cited from earlier work
# T15 construct: literature Ambit Biosciences
# ULK2 = target: T16, ULK2 (Homo sapiens, UniProt Q8IYT8); conditions: 1 μM, duplicate, without preincubation; cited from earlier work
# T16 construct: literature Ambit Biosciences
# PDGFRA = target: T17, PDGFRA (Homo sapiens, UniProt P16234); conditions: 1 μM, duplicate, without preincubation; cited from earlier work
# T17 construct: literature Ambit Biosciences
# T1 sequence (P15056 whole entry V600E): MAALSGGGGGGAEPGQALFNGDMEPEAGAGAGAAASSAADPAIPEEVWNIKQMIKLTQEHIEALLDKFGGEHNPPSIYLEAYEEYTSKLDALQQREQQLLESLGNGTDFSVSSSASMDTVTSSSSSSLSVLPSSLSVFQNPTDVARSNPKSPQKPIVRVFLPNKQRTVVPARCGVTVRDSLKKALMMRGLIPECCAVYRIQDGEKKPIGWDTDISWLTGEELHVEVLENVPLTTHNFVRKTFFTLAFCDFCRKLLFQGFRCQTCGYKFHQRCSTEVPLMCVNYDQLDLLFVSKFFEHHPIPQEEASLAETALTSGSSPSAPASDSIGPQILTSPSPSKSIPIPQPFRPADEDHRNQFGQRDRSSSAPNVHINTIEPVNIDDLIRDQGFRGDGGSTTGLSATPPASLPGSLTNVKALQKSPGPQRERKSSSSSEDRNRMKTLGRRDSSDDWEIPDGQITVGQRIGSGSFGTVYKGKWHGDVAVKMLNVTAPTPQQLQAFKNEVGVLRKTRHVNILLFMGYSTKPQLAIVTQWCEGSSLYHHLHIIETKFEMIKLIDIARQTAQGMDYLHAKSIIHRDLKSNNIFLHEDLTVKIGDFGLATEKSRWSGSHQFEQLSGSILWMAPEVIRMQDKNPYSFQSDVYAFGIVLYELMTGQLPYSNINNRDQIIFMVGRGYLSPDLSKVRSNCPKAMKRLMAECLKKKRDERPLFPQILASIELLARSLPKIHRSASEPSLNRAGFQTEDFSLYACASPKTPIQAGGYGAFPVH
# T15 sequence (Q15759 whole entry): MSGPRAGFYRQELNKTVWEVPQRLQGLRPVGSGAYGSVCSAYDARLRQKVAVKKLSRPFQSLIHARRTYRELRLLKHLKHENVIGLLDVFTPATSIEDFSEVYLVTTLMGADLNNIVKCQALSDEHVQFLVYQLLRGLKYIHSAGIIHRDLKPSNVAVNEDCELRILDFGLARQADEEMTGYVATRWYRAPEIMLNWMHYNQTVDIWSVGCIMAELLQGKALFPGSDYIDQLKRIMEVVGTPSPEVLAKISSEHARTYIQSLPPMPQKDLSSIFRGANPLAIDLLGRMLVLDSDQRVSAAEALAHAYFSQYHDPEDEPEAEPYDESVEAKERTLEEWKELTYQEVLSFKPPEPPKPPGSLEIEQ
# T5 sequence (O60674 849-1124 limits assumed): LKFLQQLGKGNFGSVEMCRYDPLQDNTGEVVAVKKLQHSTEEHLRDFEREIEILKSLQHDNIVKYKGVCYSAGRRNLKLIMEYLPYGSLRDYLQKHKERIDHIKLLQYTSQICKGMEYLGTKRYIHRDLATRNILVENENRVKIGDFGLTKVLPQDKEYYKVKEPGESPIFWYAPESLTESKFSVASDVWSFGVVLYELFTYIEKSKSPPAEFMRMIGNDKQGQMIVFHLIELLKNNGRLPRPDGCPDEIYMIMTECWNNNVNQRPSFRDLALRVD
# T6 sequence (O14920 whole entry): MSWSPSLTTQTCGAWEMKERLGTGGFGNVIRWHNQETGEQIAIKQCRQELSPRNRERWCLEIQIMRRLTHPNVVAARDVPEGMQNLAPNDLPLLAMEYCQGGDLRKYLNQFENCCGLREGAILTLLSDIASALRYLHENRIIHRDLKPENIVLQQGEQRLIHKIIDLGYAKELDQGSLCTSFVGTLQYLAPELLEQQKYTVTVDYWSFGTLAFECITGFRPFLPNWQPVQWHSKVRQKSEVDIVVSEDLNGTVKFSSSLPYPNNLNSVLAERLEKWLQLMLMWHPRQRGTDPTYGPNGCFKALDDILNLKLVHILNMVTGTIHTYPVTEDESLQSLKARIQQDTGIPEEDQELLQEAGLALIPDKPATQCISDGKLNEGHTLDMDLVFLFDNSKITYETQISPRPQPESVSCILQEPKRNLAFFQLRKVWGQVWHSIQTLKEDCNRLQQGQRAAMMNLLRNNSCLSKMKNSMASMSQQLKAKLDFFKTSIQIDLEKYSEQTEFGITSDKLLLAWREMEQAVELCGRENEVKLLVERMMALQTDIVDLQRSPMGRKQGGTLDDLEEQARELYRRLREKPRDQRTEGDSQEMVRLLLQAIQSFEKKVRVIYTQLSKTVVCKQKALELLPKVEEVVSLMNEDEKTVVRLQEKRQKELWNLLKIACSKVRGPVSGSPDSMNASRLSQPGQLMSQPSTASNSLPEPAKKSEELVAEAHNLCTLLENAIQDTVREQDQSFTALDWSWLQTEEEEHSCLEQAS
# T10 sequence (P50613 whole entry): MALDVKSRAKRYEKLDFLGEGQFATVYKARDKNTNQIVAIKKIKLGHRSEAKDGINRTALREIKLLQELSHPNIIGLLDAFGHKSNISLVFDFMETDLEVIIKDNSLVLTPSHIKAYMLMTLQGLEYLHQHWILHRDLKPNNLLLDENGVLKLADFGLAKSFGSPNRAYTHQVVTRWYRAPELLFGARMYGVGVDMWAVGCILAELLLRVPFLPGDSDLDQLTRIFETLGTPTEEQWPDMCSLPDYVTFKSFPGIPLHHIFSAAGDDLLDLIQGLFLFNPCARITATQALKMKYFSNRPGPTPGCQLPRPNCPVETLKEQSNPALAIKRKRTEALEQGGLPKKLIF
# T12 sequence (P09619 33-1106): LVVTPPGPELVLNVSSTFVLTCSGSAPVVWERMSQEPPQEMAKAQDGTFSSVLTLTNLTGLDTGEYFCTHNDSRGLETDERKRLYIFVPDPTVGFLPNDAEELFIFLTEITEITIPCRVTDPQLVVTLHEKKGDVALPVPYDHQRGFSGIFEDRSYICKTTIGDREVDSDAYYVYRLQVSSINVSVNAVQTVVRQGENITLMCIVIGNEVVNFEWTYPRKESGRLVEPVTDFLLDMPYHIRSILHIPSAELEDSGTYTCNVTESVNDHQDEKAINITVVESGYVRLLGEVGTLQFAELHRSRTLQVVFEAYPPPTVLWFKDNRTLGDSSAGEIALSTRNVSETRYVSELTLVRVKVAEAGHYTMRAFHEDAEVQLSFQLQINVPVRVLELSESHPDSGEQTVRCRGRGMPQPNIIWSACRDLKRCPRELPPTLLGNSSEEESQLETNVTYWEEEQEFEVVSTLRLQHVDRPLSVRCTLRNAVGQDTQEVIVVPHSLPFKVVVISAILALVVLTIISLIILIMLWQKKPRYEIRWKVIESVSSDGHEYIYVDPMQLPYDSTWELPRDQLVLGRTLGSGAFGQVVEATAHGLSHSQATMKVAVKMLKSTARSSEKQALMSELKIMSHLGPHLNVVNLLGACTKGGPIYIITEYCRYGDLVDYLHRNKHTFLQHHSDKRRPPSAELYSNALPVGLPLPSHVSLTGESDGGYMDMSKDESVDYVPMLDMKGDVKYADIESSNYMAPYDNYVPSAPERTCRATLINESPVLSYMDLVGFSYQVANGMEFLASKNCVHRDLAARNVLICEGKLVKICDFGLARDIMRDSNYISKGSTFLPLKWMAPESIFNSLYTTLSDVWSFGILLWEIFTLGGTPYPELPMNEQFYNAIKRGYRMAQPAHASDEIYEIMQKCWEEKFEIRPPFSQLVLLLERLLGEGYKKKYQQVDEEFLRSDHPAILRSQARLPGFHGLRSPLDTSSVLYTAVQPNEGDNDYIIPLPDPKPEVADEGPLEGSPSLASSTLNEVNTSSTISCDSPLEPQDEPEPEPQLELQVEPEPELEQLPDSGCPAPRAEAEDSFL
# T3 sequence (P07333 20-972): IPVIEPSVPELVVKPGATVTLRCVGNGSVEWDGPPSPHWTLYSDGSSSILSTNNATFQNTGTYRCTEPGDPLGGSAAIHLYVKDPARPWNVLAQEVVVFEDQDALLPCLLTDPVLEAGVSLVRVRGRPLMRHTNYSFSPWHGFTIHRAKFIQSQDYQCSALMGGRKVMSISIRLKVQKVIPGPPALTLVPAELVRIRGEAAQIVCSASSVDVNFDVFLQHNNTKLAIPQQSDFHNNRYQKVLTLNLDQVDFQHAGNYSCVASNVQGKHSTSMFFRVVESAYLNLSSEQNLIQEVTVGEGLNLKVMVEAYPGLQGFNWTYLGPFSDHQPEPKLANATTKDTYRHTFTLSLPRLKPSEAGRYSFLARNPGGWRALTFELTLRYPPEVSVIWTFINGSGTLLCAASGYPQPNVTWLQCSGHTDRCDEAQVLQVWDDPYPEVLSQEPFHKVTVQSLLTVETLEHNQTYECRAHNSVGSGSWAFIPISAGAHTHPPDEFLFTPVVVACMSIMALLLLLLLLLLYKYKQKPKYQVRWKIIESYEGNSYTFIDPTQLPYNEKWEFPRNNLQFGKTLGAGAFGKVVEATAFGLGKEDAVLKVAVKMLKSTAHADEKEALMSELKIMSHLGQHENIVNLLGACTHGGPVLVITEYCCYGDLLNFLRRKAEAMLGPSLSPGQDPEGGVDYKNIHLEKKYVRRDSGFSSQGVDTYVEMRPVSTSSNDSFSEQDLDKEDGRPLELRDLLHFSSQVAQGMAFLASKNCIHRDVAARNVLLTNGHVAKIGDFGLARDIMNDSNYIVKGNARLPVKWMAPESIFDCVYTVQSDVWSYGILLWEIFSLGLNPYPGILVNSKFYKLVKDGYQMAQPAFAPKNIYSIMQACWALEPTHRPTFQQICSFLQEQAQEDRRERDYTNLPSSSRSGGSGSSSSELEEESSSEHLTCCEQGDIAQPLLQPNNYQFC
# T8 sequence (Q9BWU1 whole entry): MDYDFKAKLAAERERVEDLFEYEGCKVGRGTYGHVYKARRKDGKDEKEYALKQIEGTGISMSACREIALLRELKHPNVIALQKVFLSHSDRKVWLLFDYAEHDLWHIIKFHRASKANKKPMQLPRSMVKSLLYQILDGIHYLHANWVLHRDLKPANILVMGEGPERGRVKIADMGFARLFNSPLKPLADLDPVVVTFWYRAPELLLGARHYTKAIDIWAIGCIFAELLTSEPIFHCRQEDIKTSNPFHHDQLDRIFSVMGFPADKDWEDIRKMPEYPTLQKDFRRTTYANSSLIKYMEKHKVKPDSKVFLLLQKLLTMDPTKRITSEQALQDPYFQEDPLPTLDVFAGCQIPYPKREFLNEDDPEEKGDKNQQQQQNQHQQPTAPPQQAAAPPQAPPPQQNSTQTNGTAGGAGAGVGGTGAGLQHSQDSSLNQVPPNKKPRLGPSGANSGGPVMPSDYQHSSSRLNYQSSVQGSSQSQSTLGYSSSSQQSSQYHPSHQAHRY
structure (smiles),measurement,setting,value
"Cc1ccc(NC(=O)c2nc(S(C)(=O)=O)[nH]c2-c2ccc(F)cc2)cc1Nc1ccc2ncn(C)c(=O)c2c1 [Inhibitor I-13, 3-(3-methyl-4-oxo-3,4-dihydroquinazolin-6-ylamino)-4-methyl-analine, 5-(4-Fluorophenyl)-2-(methylsulfonyl)-1H-imidazole-4-carboxamide]",more potent against the mutant verses wild type B-Raf,BRAF(V600E) [1]; B-Raf(V600E) vs wild type B-Raf,approximately 80 fold
same,increase in potency vs KIN-0035,"BRAF(V600E) [1]; LanthaScreen assay, IC50 ratio",10 fold
same,pIC50,"BRAF(V600E) [1]; LanthaScreen assay, side by side comparison",8.18
same,change of IC50 value with preincubation,BRAF(V600E) [1]; several hour preincubation period,appeared to decrease over a several hour preincubation period
same,real time kinetic data with B-Raf(V600E),BRAF(V600E) [2],consistent with either extremely tight binding or irreversible inhibition
same,real time kinetic data with B-Raf(V600E),BRAF(V600E) [2]; listed as SFE-0013,consistent with extremely tight or irreversible inhibition
same,pIC50,wild type B-Raf,~6.30
"O=C(Nc1ccccn1)c1cc(NC(=O)c2nc(C(F)(F)F)[nH]c2-c2ccc(F)cc2)ccc1Cl [Inhibitor I-1, 5-(4-Fluoro-phenyl)-2-trifluoromethyl-3H-imidazole-4-carboxylic acid [4-chloro-3-(pyridin-2-ylcarbamoyl)-phenyl]-amide]",activity against any of the kinases tested,panel of kinases,no significant activity
"O=C(Nc1ccncc1)c1cc(NC(=O)c2nc(C(F)(F)F)[nH]c2-c2ccc(F)cc2)ccc1Cl [Inhibitor I-2, 5-(4-Fluoro-phenyl)-2-trifluoromethyl-3H-imidazole-4-carboxylic acid [4-chloro-3-(pyridin-4-ylcarbamoyl)-phenyl]-amide]",activity against any of the kinases tested,panel of kinases,no significant activity
Cc1ccc(NC(=O)c2[nH]c(C(F)(F)F)nc2-c2ccc(F)c(F)c2)cc1Nc1ccc2ncn(C)c(=O)c2c1 [KIN-057],inhibition of PRKCE,PRKCE,X (X > 25% @ 1 μM)
same,inhibition of CSF1R,CSF1R,X (X > 25% @ 1 μM)
same,inhibition of BTK,BTK,X (X > 25% @ 1 μM)
same,inhibition of KIT,KIT,XXX (XXX > 75% @ 1 μM)
same,inhibition of JAK2 (catalytic),JAK2 (catalytic),X (X > 25% @ 1 μM)
same,inhibition of IKK-beta,IKK-beta,X (X > 25% @ 1 μM)
same,inhibition of RAF1,RAF1,XXXX (XXXX > 90% @ 1 μM)
same,inhibition of BRAF(V600E),BRAF(V600E) [3],XXX (XXX > 75% @ 1 μM)
same,inhibition of CDK11,CDK11,XX (XX > 50% @ 1 μM)
same,inhibition of PLK4,PLK4,X (X > 25% @ 1 μM)
same,inhibition of CDK7,CDK7,X (X > 25% @ 1 μM)
same,inhibition of DCAMKL1,DCAMKL1,X (X > 25% @ 1 μM)
same,inhibition of PDGFRB,PDGFRB,XXX (XXX > 75% @ 1 μM)
same,inhibition of p38-alpha,p38-alpha,XXX (XXX > 75% @ 1 μM)
same,inhibition of BRAF,BRAF,XXX (XXX > 75% @ 1 μM)
same,inhibition of p38-beta,p38-beta,X (X > 25% @ 1 μM)
same,inhibition of ULK2,ULK2,X (X > 25% @ 1 μM)
same,inhibition of PDGFRA,PDGFRA,X (X > 25% @ 1 μM)
"O=C(Nc1ccc(Oc2ccnc3[nH]c(=O)[nH]c23)cc1)c1nc(C(F)(F)F)[nH]c1-c1ccc(F)cc1 [Inhibitor I-12, 4-(4-{[5-(4-Fluoro-phenyl)-2-trifluoromethyl-3H-imidazole-4-carbonyl]-amino}-phenoxy)-pyridine-2,3-benzimidazolone carboxylic acid methylamide]",number of panel kinases at >25% inhibition,"panel of kinases; panel of 220 kinases, 5 μM",72 kinases
same,number of panel kinases with greater than 50% inhibition,"panel of kinases; panel of 220 kinases, 5 μM",45 kinases
"Cc1ccc(NC(=O)c2nc(C(F)(F)F)[nH]c2-c2ccc(F)cc2)cc1NC(=O)c1c[nH]c2ncccc12 [Inhibitor I-11, 1H-7-Azaindole-3-carboxylic acid (5-{[5-(4-fluoro-phenyl)-2-trifluoromethyl-3H-imidazole-4-carbonyl]-amino}-2-methyl-phenyl)-amide]",selectivity in kinase panel,"panel of kinases; panel of 220 kinases, 5 μM",extremely selective for p38-α
